Measurements taken from PubChem BioAssay (NCI).
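48-hour exposure; five concentrations; linearly interpolated endpoints. The concentration for 50% growth inhibition is given as GI50. At the TGI there is no net growth.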

Tests used:
Assay in all cases: DTP human tumour cell line panel, 48 h
[1] = system: HOP-92 NSCLC
[2] = system: MCF7 breast
[3] = system: ACHN renal
[4] = system: CCRF-CEM leukemia
[5] = system: KM12 colon
[6] = system: SF-295 CNS
[7] = system: COLO 205 colon
[8] = system: HOP-62 NSCLC
[9] = system: RXF 393 renal
[10] = system: MOLT-4 leukemia
[11] = system: HL-60(TB) leukemia

Compound	TGI [1] [µM]	TGI [2] [µM]	TGI [3] [µM]	TGI [4] [µM]	TGI [5] [µM]	TGI [6] [µM]	TGI [7] [µM]	TGI [8] [µM]	TGI [9] [µM]	TGI [10] [µM]	TGI [11] [µM]	GI50 [8] [µM]
C/C(C=O)=N\Nc1cc(C)c2ccccc2n1	29.6	29.5	29.9	29.3	28.5	39.4	33.2	29.2	43.1	36.8	–	–
CC1CCCc2c(-c3ccc(Cl)cc3)nc(N)c(C#N)c21 (centres undefined)	–	> 100	> 100	> 100	56.7	–	48.3	63	93.2	69.8	> 100	–
CC1=NC(=Cc2ccc(Cl)cc2)C(=O)N1n1c(-c2ccccc2)nc2ccccc2c1=O	–	> 100	46.7	> 100	> 100	> 100	> 100	> 100	–	> 100	78.6	–
O=C(/C=C/c1ccc(O)c(O)c1)NC(CO)C(=O)O (centres undefined)	> 100	> 100	> 100	> 100	> 100	> 100	> 100	> 100	> 100	> 100	–	–
CCCOc1ccc(/C=C/c2cc(OC)c(OC)c(OC)c2)cc1	7.41	–	> 100	24.5	> 25.4	1.06	2.42	> 100	0.904	13.2	1.16	0.32
O=S(=O)(CC1=NC2C=CC=CC2N=C1)NCc1ccccc1 (centres undefined)	> 100	–	> 100	> 100	> 100	> 100	> 100	> 100	> 100	> 100	> 100	–
c1ccc(C2=NN(c3ccccc3)C3(S2)SC(c2ccccc2)(c2ccccc2)c2ccccc23)cc1 (centres undefined)	> 100	–	> 100	> 100	> 100	> 100	> 100	> 100	–	> 100	> 100	–
CSC1=N/C(=C\c2cccs2)C(=O)N1CN1CCCCC1	96.5	> 100	> 100	> 100	> 100	> 100	> 100	> 100	–	> 100	–	–
CC(=O)OCC(OC(C)=O)C(OC(C)=O)C(/C=N/N(C(C)=O)S(=O)(=O)c1ccc(/C=C2\NC(=O)NC2=O)cc1)OC(C)=O (centres undefined)	–	> 100	> 100	> 100	–	> 100	> 100	> 100	> 100	> 100	–	–
CCn1c(=O)c2c(=O)[nH][nH]c2c2ccccc21	> 100	> 100	> 100	> 100	> 100	> 100	> 100	> 100	–	> 100	> 100	–
COC(=O)c1c/c(=N\NC(=O)CC(=O)Nc2ccccc2Cl)c2ccccc2o1	–	–	> 100	–	> 100	> 100	> 100	> 100	–	> 100	> 100	–
Oc1cn(-c2ccc(Cl)cc2)nc1-c1nnc(Nc2ccccc2)o1	–	33.9	71.6	–	37.2	39.2	51	31.6	39.6	–	–	–
Cc1ccc2sc3cc(=O)cc(C)c-3nc2c1	> 100	–	> 100	93.8	> 100	> 100	> 100	> 100	–	> 100	66	–
NC(=S)N/N=C/c1cc(CN2CCOCC2)c(N)cn1	–	> 100	> 100	> 100	> 100	> 100	> 100	> 100	> 100	> 100	> 100	–
CC(=O)NNC=N/C(C#N)=C(\N)C#N	–	> 100	> 100	> 100	> 100	> 100	> 100	> 100	–	> 100	> 100	–
NN/C(=N\S(=O)(=O)c1cc(Cl)c(Oc2ccc([N+](=O)[O-])cc2Cl)c(Cl)c1)Nc1ccc(Cl)cc1	38.9	58.4	67.4	37.5	42.1	50.4	29	41	28.4	85.8	–	–
CSc1nc(C)cc(Nc2ccc(O)c(CN3CCCCC3)c2)n1	> 100	> 100	> 100	–	> 100	> 100	> 100	> 100	> 100	> 100	–	–
O=C(O)CCC(=O)Nc1ccc2c(c1)S(=O)(=O)N(CC(=O)O)C2=O	> 100	> 100	> 100	> 100	> 100	> 100	> 100	> 100	–	> 100	> 100	–
O=C(Nc1ccc(C(F)(F)F)cc1[N+](=O)[O-])C(=O)C(C(=O)c1ccc2ccccc2c1)C1OC(=O)c2ccccc21 (centres undefined)	4	–	> 84.9	35.5	24.4	24.8	32.7	14.8	10.1	10.6	39.6	–
CCc1cc(Cc2cc(CC)c(NC(=O)C3=CC(=O)CC(c4ccc(OC)cc4)O3)c(CC)c2Cl)c(Cl)c(CC)c1NC(=O)C1=CC(=O)CC(c2ccc(OC)cc2)O1 (centres undefined)	39.7	–	32.1	90.2	26.9	38.7	31.6	46.5	34.7	> 100	68.1	–
CC(=O)OC1[C@H]2c3cc4c(cc3CN3CCC(C[C@@H]1OC(C)=O)C23)OCO4 (some centres undefined)	–	–	> 75	> 75	> 75	> 75	> 75	> 75	> 75	> 75	> 75	–
Cn1c(=O)nc2n(CCO)c(-c3ccccc3)c(-c3ccccc3)nc-2c1=O	> 100	–	> 100	> 100	> 100	> 100	> 100	> 100	> 100	> 100	–	–
